Laboratory results as given in patent US11046714B2, “2,2-difluorodioxolo A2A receptor antagonists” (Merck Sharp & Dohme Corp., priority 2013, dated 2021).

Biological target: human A2A receptor (Homo sapiens (Human), UniProt P29274)
Test: competition binding assay using Scintillation Proximity technology
Conditions: membranes from CHO-K1 cells expressing the human A2a receptor; 2.0 nM tritiated compound; Cheng-Prusoff
Protocol: The utility of the compounds in accordance with the present invention as A2A receptor antagonists may be readily determined without undue experimentation by methodologies well known in the art, including by a competition binding assay using Scintillation Proximity technology. Briefly, membranes from CHO-K1 cells expressing the human A2A receptor are incubated with a test compound at various concentrations, e.g., ranging from 3000 nM to 0.15 nM, in a reaction mixture also containing a tritiated form of 5-amino-7-[2-phenethyl]-2-(furan-2-yl)-7H-pyrazolo[4,3-e][1,2,4]triazolo[1,5-c]pyrimidine (the tritiated compound) and wheatgerm agglutin-coated yttrium silicate SPA beads at room temperature. The beads are then allowed to settle to the bottom of the wells, after which the membrane-associated radioactivity is determined by scintillation counting in a microplate reader. Ki values can be determined using the Cheng-Prusoff equation.
Thus, 1.0 μg of membranes from CHO-K1 cells expressing the human A2a receptor were incubated with a compound of the invention at concentrations ranging from 3000 nM to 0.15 nM in a reaction mixture also containing 2.0 nM of a tritiated form of 5-amino-7-[2-phenethyl]-2-(furan-2-yl)-7H-pyrazolo[4,3-e][1,2,4]triazolo[1,5-c]pyrimidine (the tritiated compound) and 100 μg of wheatgerm agglutin-coated yttrium silicate SPA beads for one hour at room temperature with agitation. The beads were then allowed to settle to the bottom of the wells for 1 hr, after which the membrane-associated radioactivity was determined by scintillation counting in a TopCount microplate reader. Ki values were determined using the Cheng-Prusoff equation.
Summary of Materials and Methods Used in A2a Activity Determination:
• Membranes from CHO-K1 cells expressing the human Adenosine2A receptor (Perkin-Elmer #RBHA2AM400UA). • The tritiated compound was prepared according to published methods. • Wheatgerm agglutinin-coated yttrium silicate SPA beads (GE Healthcare #RPNQ0023). Dilute to 25 mg/ml in Assay Buffer. • Assay Buffer: Dulbecco's calcium and magnesium free phosphate buffered saline+10 mM MgCl2 • Adenosine deaminase (ADA) from calf intestine, 10 mg/2 ml (Roche #10 102 105 001). • DMSO • A2a antagonist standard (9-chloro-1-(2-furanyl)-[1,2,4]triazolo[1,5-c]quinazolin-5-amine from Tocris Bioscience) Compound Dilution • Make eight 1:3 serial dilutions in 100% DMSO from a 3 mM compound stock. • Transfer 50 nL of compound into a 384-well OptiPlate (Perkin Elmer). • Typically, final concentrations of compound used in the assay ranged from 3000 nM to 0.152 nM. Radioisotope • Dilute a solution of the tritiated compound to 5.0 nM in assay buffer. This is a 2.5× solution. The final concentration in the assay is 2.0 nM. Calculate the concentration by counting two 5 μL aliquots. Membrane Preparation • Use 1.0 μg of membrane/well. Dilute membranes to 33 μg/mL in assay buffer. Treat with 20 μg/mL ADA for 15 minutes at room temperature to degrade endogenous adenosine. Membrane-Bead Mixture • Use 100 μg/well wheatgerm agglutinin-coated yttrium silicate SPA beads. • Mix ADA-treated membranes and SPA beads together for 30 min prior to assay. Assay Assembly • To the Perkin-Elmer Optiplate-384 containing the compound titration add 20 μL of 2.5× solution of the tritiated compound and 30 μL of the membrane-bead mixture. Incubate for one hour at room temperature with agitation. • Include total binding (assay buffer+1% DMSO) and non-specific binding (CGS 15943, 1 μM) wells. Counting • Allow the beads to settle for one hour. • Count in TopCount. Calculations • A curve fitting program (i.e., Prism, Activity Base, Chemcart) is used to determine the EC50. The Ki value is calculated using the Cheng-Prusoff equation. Ki=EC50/(1+(radioligand concentration/Kd))

human A2A receptor, sequence (P29274 whole entry): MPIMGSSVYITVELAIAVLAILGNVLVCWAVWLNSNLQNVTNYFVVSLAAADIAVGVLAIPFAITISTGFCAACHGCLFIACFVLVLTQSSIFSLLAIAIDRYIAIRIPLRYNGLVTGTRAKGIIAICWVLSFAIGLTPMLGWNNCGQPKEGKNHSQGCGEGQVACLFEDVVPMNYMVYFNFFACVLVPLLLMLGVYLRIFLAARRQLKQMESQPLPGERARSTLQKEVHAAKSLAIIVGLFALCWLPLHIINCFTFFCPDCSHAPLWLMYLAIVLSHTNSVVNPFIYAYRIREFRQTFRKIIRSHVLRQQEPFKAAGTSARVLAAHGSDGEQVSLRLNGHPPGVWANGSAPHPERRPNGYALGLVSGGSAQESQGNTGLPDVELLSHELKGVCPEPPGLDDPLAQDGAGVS

Nc1nc2c3c(ccc2c2nc(CC(C(F)F)N4Cc5cccnc5C4)nn12)OC(F)(F)O3 (single isomer, unassigned) [Example 97, (R or S)-8-(3,3-difluoro-2-(5H-pyrrolo[3,4-b]pyridin-6(7H)-yl)propyl)-2,2-difluoro-[1,3]dioxolo[4,5-h][1,2,4]triazolo[1,5-c]quinazolin-5-amine]
Ki: 2.2 nM

Nc1nc2c3c(ccc2c2nc(CC(C(F)F)N4Cc5cccnc5C4)nn12)OC(F)(F)O3 (single isomer, unassigned) [Example 98, (R or S)-8-(3,3-difluoro-2-(5H-pyrrolo[3,4-b]pyridin-6(7H)-yl)propyl)-2,2-difluoro-[1,3]dioxolo[4,5-h][1,2,4]triazolo[1,5-c]quinazolin-5-amine]
Ki: 6.6 nM

CC(c1nc2c3ccc4c(c3nc(N)n2n1)OC(F)(F)O4)N1CC(F)(F)C1 (single isomer, unassigned) [Example 131, (R or S)-8-[1-(3,3-difluoroazetidin-1-yl)ethyl]-2,2-difluoro[1,3]dioxolo [4,5-h][1,2,4]triazolo[1,5-c]quinazolin-5-amine]
Ki: 130 nM

CC(c1nc2c3ccc4c(c3nc(N)n2n1)OC(F)(F)O4)N1CC(F)(F)C1 (single isomer, unassigned) [Example 132, (R or S)-8-[1-(3,3-difluoroazetidin-1-yl)ethyl]-2,2-difluoro[1,3]dioxolo [4,5-h][1,2,4]triazolo[1,5-c]quinazolin-5-amine]
Ki: 56 nM

CC(c1nc2c3ccc4c(c3nc(N)n2n1)OC(F)(F)O4)N1C[C@H](F)[C@@H](F)C1 (single isomer, unassigned) [Example 133, (R or S)-8-{1-[(3S,4S)-3,4-difluoropyrrolidin-1-yl]ethyl}-2,2-difluoro[1,3]dioxolo[4,5-h][1,2,4]triazolo[1,5-c]quinazolin-5-amine]
Ki: 64 nM

CC(c1nc2c3ccc4c(c3nc(N)n2n1)OC(F)(F)O4)N1C[C@H](F)[C@@H](F)C1 (single isomer, unassigned) [Example 134, (R or S)-8-{1-[(3S,4S)-3,4-difluoropyrrolidin-1-yl]ethyl}-2,2-difluoro[1,3]dioxolo[4,5-h][1,2,4]triazolo[1,5-c]quinazolin-5-amine]
Ki: 24 nM

CC(c1nc2c3ccc4c(c3nc(N)n2n1)OC(F)(F)O4)N1CCCC(F)(F)C1 (single isomer, unassigned) [Example 135, 8-[(1S or 1R)-1-(3,3-difluoropiperidin-1-yl)ethyl]-2,2-difluoro[1,3]dioxolo [4,5-h][1,2,4]triazolo[1,5-c] quinazolin-5-amine]
Ki: 89 nM

CC(c1nc2c3ccc4c(c3nc(N)n2n1)OC(F)(F)O4)N1CCCC(F)(F)C1 (single isomer, unassigned) [Example 136, 8-[(1S or 1R)-1-(3,3-difluoropiperidin-1-yl)ethyl]-2,2-difluoro[1,3]dioxolo [4,5-h][1,2,4]triazolo[1,5-c] quinazolin-5-amine]
Ki: 25 nM

Nc1nc2c3c(ccc2c2nc(C4CCCN(CCC(F)(F)F)C4)nn12)OC(F)(F)O3 (single isomer, unassigned) [Example 140, (R or S)-2,2-difluoro-8-(1-(3,3,3-trifluoropropyl)piperidin-3-yl)-[1,3]dioxolo[4,5-h][1,2,4]triazolo[1,5-c]quinazolin-5-amine]
Ki: 0.8 nM

Nc1nc2c3c(ccc2c2nc(C4CCCN(CCC(F)(F)F)C4)nn12)OC(F)(F)O3 (single isomer, unassigned) [Example 141, (R or S)-2,2-difluoro-8-(1-(3,3,3-trifluoropropyl)piperidin-3-yl)-[1,3]dioxolo[4,5-h][1,2,4]triazolo[1,5-c]quinazolin-5-amine]
Ki: 55 nM

Nc1nc2c3c(ccc2c2nc(C4CCCN(c5cccc(F)c5)C4)nn12)OC(F)(F)O3 (single isomer, unassigned) [Example 142, (R or S)-2,2-difluoro-8-[1-(3-fluorophenyl)piperidin-3-yl][1,3]dioxolo[4,5-h][1,2,4]triazolo[1,5-c]quinazolin-5-amine]
Ki: 1.2 nM

Nc1nc2c3c(ccc2c2nc(C4CCCN(c5cccc(F)c5)C4)nn12)OC(F)(F)O3 (single isomer, unassigned) [Example 143, (R or S)-2,2-difluoro-8-[1-(3-fluorophenyl)piperidin-3-yl][1,3]dioxolo[4,5-h][1,2,4]triazolo[1,5-c]quinazolin-5-amine]
Ki: 59 nM

Nc1nc2c3c(ccc2c2nc(C4CCCN(c5cc(F)cc(F)c5)C4)nn12)OC(F)(F)O3 (single isomer, unassigned) [Example 144, (R or S)-8-[1-(3,5-difluorophenyl)piperidin-3-yl]-2,2-difluoro[1,3] dioxolo[4,5-h][1,2,4]triazolo[1,5-c]quinazolin-5-amine]
Ki: 1.2 nM

Nc1nc2c3c(ccc2c2nc(C4CCCN(c5cc(F)cc(F)c5)C4)nn12)OC(F)(F)O3 (single isomer, unassigned) [Example 145, (R or S)-8-[1-(3,5-difluorophenyl)piperidin-3-yl]-2,2-difluoro[1,3] dioxolo[4,5-h][1,2,4]triazolo[1,5-c]quinazolin-5-amine]
Ki: 140 nM

Nc1nc2c3c(ccc2c2nc(C4CCCN(c5cncnc5)C4)nn12)OC(F)(F)O3 (single isomer, unassigned) [Example 146, (R or S)-2,2-difluoro-8-(1-pyrimidin-5-ylpiperidin-3-yl)[1,3]dioxolo[4,5-h][1,2,4]triazolo[1,5-c]quinazolin-5-amine]
Ki: 44 nM

Nc1nc2c3c(ccc2c2nc(C4CCCN(c5cncnc5)C4)nn12)OC(F)(F)O3 (single isomer, unassigned) [Example 147, (R or S)-2,2-difluoro-8-(1-pyrimidin-5-ylpiperidin-3-yl)[1,3]dioxolo[4,5-h][1,2,4]triazolo[1,5-c]quinazolin-5-amine]
Ki: 2.9 nM

Nc1nc2c3c(ccc2c2nc(CC4CCN(CCC(F)(F)F)C4)nn12)OC(F)(F)O3 (single isomer, unassigned) [Example 154, (R or S)-2,2-difluoro-8-{[1-(3,3,3-trifluoropropyl)pyrrolidin-3-yl]methyl}[1,3]dioxolo[4,5-h][1,2,4]triazolo[1,5-c]quinazolin-5-amine]
Ki: 20 nM

Nc1nc2c3c(ccc2c2nc(CC4CCN(CCC(F)(F)F)C4)nn12)OC(F)(F)O3 (single isomer, unassigned) [Example 155, (R or S)-2,2-difluoro-8-{[1-(3,3,3-trifluoropropyl)pyrrolidin-3-yl]methyl}[1,3]dioxolo[4,5-h][1,2,4]triazolo[1,5-c]quinazolin-5-amine]
Ki: 7.2 nM

Nc1nc2c3c(ccc2c2nc(CC4CCN(CC(F)F)C4)nn12)OC(F)(F)O3 (single isomer, unassigned) [Example 156, (R or S)-8-{[1-(2,2-difluoroethyl)pyrrolidin-3-yl]methyl}-2,2-difluoro[1,3]dioxolo[4,5-h][1,2,4]triazolo[1,5-c]quinazolin-5-amine]
Ki: 5.3 nM

COCCN1CCC(Cc2nc3c4ccc5c(c4nc(N)n3n2)OC(F)(F)O5)C1 (single isomer, unassigned) [Example 157, (R or S)-2,2-difluoro-8-{[1-(2-methoxyethyl)pyrrolidin-3-yl]methyl}[1,3]dioxolo [4,5-h][1,2,4]triazolo[1,5-c]quinazolin-5-amine]
Ki: 75 nM

Nc1nc2c3c(ccc2c2ncnn12)OC(F)(F)O3 [Example 1, 2,2-difluoro-[1,3]dioxolo[4,5-h][1,2,4]triazolo[1,5-c]quinazolin-5-amine]
Ki: 12 nM

Cc1nc2c3ccc4c(c3nc(N)n2n1)OC(F)(F)O4 [Example 2, 2,2-difluoro-8-methyl-[1,3]dioxolo[4,5-h][1,2,4]triazolo[1,5-c]quinazolin-5-amine]
Ki: 6.2 nM
